This is an account of results in paper PMC9785006, “The Study of Hypoglycemic Activity of 7-Terpenylcoumarins” (Molecules, 2022).

Test [1] has as its target T1, DPP IV (Homo sapiens, UniProt P27487).
T1 construct: gene DPP4
The test can be described thus: fluorometric DPP (IV) inhibitor screening kit (Cayman), Gly-Pro-AMC substrate. It is filed as biochemical.

The target in test [2] is T1, DPP IV. The test can be described thus: fluorometric DPP (IV) inhibitor screening kit (Cayman), Gly-Pro-AMC substrate; at […] the effect was only a tendency ([…] < p < […]). It is filed as biochemical.

T1 sequence (P27487 39-766): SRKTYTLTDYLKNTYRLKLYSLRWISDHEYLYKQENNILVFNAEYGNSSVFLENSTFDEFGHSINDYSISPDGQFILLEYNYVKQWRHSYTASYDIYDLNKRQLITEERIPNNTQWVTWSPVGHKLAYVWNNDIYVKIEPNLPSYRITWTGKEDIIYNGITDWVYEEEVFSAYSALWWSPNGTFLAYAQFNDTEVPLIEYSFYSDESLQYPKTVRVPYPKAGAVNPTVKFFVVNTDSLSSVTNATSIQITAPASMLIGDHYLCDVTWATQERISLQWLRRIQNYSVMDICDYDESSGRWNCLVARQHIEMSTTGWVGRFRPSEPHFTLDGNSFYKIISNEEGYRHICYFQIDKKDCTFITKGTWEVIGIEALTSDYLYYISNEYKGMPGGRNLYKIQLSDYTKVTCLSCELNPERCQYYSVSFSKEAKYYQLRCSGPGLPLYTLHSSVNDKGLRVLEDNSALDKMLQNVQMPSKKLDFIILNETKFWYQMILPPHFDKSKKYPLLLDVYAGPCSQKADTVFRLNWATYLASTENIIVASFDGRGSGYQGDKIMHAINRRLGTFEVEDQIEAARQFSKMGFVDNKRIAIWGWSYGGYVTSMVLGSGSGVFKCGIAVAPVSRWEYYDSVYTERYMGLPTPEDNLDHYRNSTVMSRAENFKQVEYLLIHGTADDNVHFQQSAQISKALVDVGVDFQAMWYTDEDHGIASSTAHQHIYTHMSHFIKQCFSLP

For orientation: IC50 means the point on the concentration scale where inhibition reaches its midpoint. A low value points to inhibition by little substance. `CC(C)=CCC/C(C)=C/COc1ccc2c(-c3ccccc3)cc(=O)oc2c1` [9a, (E)-7-(3,7-Dimethylocta-2,6-dienyloxy)-4-phenyl-2H-chromen-2-one]: the IC50 at DPP IV [1] is 128 µM.
In turn, `CC1(C)[C@H]2CC=C(COc3ccc4c5c(c(=O)oc4c3)CCC5)[C@@H]1C2` [7b, 7-(((1R,5S)-6,6-Dimethylbicyclo [3.1.1]hept-2-en-2-yl)methoxy)-2,3-dihydrocyclopenta[c]chromen-4(1H)-one] displayed an IC50 on DPP IV [2] of 115 µM.
